{"source": "patent EP3628663A1", "about": "“ANTIVIRAL COMPOUNDS” (priority 2018, dated 2020)", "key": {"HAd-C5-GFP": {"test_system": "HAd-C5-GFP", "experiment": "Fluorescent plaque forming assay of adenoviral propagation (virus spread)", "format": "cell-based", "details": "HEK293 cells", "protocol": "Adenoviral propagation was quantified by fluorescent plaque forming assay with GFP expressing HAd-C5 vector in the presence of the compound as a measure of virus spread through multiple rounds of infection.\nHEK293 cells were infected with 0.1 physical particles per cell (pp/cell) of E1-deficient GFP expressing HAd-C5-GFP vector for 24 hours followed by removal of the inoculums and overlay with 1% agarose supplemented with vehicle only (DMSO) or 5 µM of the compound of formula (IIIa).\nSix days after infection, plaque sizes were measured by epifluorescence microscopy using Image J.\nCidofovir™, the standard clinical drug used against adenovirus infections in the clinic, is also included in this test.\nThe compounds were used at a concentration of 5 µM. Cidofovir was in particular used at even higher concentration, i.e. 10 and 20 µM.\nDMSO was used as negative control.\nStatistical analysis was carried out using unpaired Student t-test."}, "recombinant NEDD4.2": {"biological_target": "T1, recombinant NEDD4.2 (Homo sapiens, UniProt Q96PU5)", "T1 sequence (Q96PU5 1-975)": "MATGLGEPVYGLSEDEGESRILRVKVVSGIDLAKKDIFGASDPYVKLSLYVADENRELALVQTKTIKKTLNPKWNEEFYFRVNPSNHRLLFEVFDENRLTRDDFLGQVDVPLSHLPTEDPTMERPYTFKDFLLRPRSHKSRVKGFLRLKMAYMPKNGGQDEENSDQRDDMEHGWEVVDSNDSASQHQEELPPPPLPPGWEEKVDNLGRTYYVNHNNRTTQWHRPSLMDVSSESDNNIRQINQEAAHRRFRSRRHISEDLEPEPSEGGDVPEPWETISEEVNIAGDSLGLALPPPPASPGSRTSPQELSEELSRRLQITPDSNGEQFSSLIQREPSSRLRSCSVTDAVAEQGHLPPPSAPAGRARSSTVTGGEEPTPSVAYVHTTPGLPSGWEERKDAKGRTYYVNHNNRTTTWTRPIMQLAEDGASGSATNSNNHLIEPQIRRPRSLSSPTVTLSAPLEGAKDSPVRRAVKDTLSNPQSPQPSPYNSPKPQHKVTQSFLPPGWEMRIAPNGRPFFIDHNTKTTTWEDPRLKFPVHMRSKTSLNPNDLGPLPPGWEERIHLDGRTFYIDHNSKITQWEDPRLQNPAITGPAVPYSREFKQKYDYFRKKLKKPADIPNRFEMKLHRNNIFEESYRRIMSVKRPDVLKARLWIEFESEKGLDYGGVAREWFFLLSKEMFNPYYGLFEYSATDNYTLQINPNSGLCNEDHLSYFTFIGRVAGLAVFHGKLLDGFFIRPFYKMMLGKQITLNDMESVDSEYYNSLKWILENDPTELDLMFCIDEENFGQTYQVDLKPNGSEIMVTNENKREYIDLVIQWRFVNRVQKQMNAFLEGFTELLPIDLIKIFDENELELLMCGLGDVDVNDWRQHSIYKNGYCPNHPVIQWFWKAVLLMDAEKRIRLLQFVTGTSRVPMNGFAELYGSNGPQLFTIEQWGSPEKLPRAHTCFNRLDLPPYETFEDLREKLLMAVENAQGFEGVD", "experiment": "In vitro ubiquitylation of protein VI released from adenovirus particles with recombinant NEDD4.2", "format": "biochemical", "details": "high concentrations (25 µM); recombinant NEDD4.2, 1h at 30°C", "protocol": "For in vitro ubiquitylation reactions, purified Adenovirus particles were treated with mild heat to release protein VI as previously described in Wodrich et al. (2010 - PLoS Pathog. 6, e1000808), and in vitro ubiquitylation reactions were supplemented with recombinant NEDD4.2 and DMSO or the compound of formula (IIIa) and carried out for 1h at 30°C or left on ice.\n(§1) Samples were analyzed by western blot using anti-protein VI antibodies described in Martinez et al., J Virol. 2015 Feb;89(4):2121-35."}, "NEDD4.2-GFP": {"test_system": "NEDD4.2-GFP", "experiment": "Association of incoming fluorescently labelled adenoviruses with NEDD4.2-GFP (fluorescence microscopy)", "format": "cell-based, Homo sapiens", "details": "10µM; 15-30 min p.i.", "protocol": "GFP-NEDD4.2 expressing cells were infected in absence or presence of 10µM of the compound of formula (IIIa) with fluorescently labelled viruses and association between viruses and NEDD4.2-GFP was quantified using fluorescence microscopy."}, "GFP-NEDD4.2": {"test_system": "GFP-NEDD4.2", "experiment": "Localization of GFP-NEDD4.2 in U2OS cells (fluorescence microscopy)", "format": "cell-based, Homo sapiens", "details": "U2OS cells stably expressing GFP-NEDD4.2, versus untreated cells", "excerpt": "(§2) U2OS cells (ATCC® HTB-96™) (Homo sapiens bone osteosarcoma) stably expressing low levels of GFP-NEDD4.1 or GFP-NEDD4.2 were generated through single copy flp-FRT integration (Bosse et al., Methods Mol Biol. 2013;1064:153-69.) and treated with the compound of formula (IIIa) or the control DMSO."}, "WW3-NEDD 4.1 peptide": {"biological_target": "WW3-NEDD 4.1 peptide (Homo sapiens, UniProt P46934)", "sequence (P46934 834-878)": "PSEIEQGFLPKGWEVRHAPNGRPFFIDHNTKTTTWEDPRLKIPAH", "experiment": "MicroScale thermophoresis (MST) binding to FAM-labelled WW3 peptide of NEDD4.1", "protocol": "(§3) For the MicroScale Thermophoresis (MST) experiments 1 mg of each FAM-labeled WW3_Nedd.4.1 ([…] KIPAH = SEQ ID NO: 1) and WW3_Nedd.4.2 peptide ([…] […] = SEQ ID NO: 2) (FAM = Fluorescein amidite) was used at >80% purity.\n(§4) MicroScale thermophoresis binding experiments were carried out with final 100 nM FAM-labelled WW3_Nedd.4.1 and WW3_Nedd.4.2 in binding buffer (1x PBS pH 7.4, 5 % DMSO, 0.1 % Pluronic F-127). The concentration range of the compound of formula (IIIa) is indicated here-after: Table 1\n(§5) The MST analyses were performed at 40 % MST power, 100 % LED power in standard capillaries on a Monolith NT.115 blue/green device at 25°C (NanoTemper Technologies, Munich, Germany) in duplicate technical runs in the same capillary. Thermophoresis + Tjump was analysed. The recorded fluorescence was normalised to fraction bound (0 = unbound, 1 = bound), and processed using the GraphPad Prism® 6 software and fitted using the KD fit formula derived from the law of mass action."}, "WW3-domain of NEDD4": {"biological_target": "T2, WW3-domain of NEDD4 (Homo sapiens, UniProt P46934)", "T2 construct": "a peptide corresponding to the 45 amino acids of WW3-domain of NEDD4; made in house; host or cells: chemical synthesis", "T2 sequence (P46934 834-878)": "as above", "experiment": "Solution NMR interaction study with synthetic WW3-domain peptide of NEDD4", "format": "binding", "details": "equimolar amounts of compound and NEDD4 peptide"}, "GFP-NEDD4.1": {"test_system": "GFP-NEDD4.1", "experiment": "Localization of GFP-NEDD4.1 in U2OS cells (fluorescence microscopy)", "format": "cell-based, Homo sapiens", "details": "U2OS cells stably expressing GFP-NEDD4.1, versus DMSO", "excerpt": "as §2"}, "U2OS cells": {"test_system": "U2OS cells", "experiment": "Ubiquitin proteome by diGly peptide enrichment and LC-MS/MS", "format": "cell-based, Homo sapiens", "details": "24h, compared to DMSO treated control cells", "protocol": "U2OS Cells were treated for 24h with two different concentrations of the compound of formula (IIIa) (2µM and 10µM) and were subjected to Mass Spec. analysis following diGly peptide enrichment to obtain changes in the Ubiquitin proteome.\nBriefly, cells were collected following treatment (as above) and protein extracts generated using acetone precipitation. Total proteins were trypsin-digested and the resulting peptides purified through anti di-Gly affinity chromatography prior being sequenced by LC-MS/MS."}, "WW3-NEDD 4.2 peptide": {"biological_target": "WW3-NEDD 4.2 peptide (Homo sapiens, UniProt Q96PU5)", "sequence (Q96PU5 with tags, fused parts or gaps)": "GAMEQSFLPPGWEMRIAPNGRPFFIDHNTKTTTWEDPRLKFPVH", "experiment": "MicroScale thermophoresis (MST) binding to FAM-labelled WW3 peptide of NEDD4.2", "details": "100 nM FAM-labelled peptide, 1x PBS pH 7.4, 5 % DMSO, 0.1 % Pluronic F-127, 25°C", "protocol": "as §3, §4, §5"}, "protein VI": {"test_system": "protein VI", "experiment": "Ubiquitylation of RFP-tagged protein VI in NEDD4.2-GFP expressing cells (RFP-trap, western blot)", "format": "cell-based", "details": "increasing amounts (0, 2, 5, 10, 25 µM) for 2h; NEDD4.2-GFP cells", "protocol": "Stably expressing NEDD4.2-GFP cells were transfected with an expression vector encoding RFP-tagged protein VI WT (including the PPxY targeted by NEDD4 ubiquitin ligases through WW-domains, which are the target of the compounds) or protein VI M1 (with the PPxY targeted by NEDD4 ubiquitin ligases through WW-domains mutated to PGAA) and treated with increasing amounts of the compound of formula (IIIa) for 2h. RFP stands for Red Fluorescent Protein.\nProtein VI was immunoprecipitated from drug treated cells using RFP-trap and analyzed by western blotting with anti-ubiquitin antibodies.\nas §1"}}, "note": "Like-named read-outs stand apart in the source and are kept apart here.", "data": [{"smiles": "Nc1ccn(C[C@@H](CO)OCP(=O)(O)O)c(=O)n1", "note": "[Cidofovir, reference compound]", "values": [{"measurement": "inhibition of adenoviral propagation (plaque size)", "setting": "HAd-C5-GFP; 10 µM and 20 µM (highest non-cytotoxic concentrations), plaque size", "value": "did not show significant inhibition"}]}, {"smiles": "O=C(/C=C(\\C(=O)c1ccc(Cl)cc1Cl)n1ccnc1)c1ccc(Cl)cc1Cl", "note": "[Compound of formula (IIIa), (E)-1,4-Bis(2,4-dichlorophenyl)-2-(1H-imidazol-1-yl)but-2-ene-1,4-dione]", "values": [{"measurement": "protein VI ubiquitylation in vitro", "setting": "recombinant NEDD4.2", "value": "prevented protein VI ubiquitylation in vitro"}, {"measurement": "recruitment of NEDD4.2 to incoming AdV particles", "setting": "NEDD4.2-GFP", "value": "prevented the recruitment of NEDD4.2"}, {"measurement": "NEDD4.2 localization", "setting": "GFP-NEDD4.2", "value": "accumulated strongly at cell-cell-contact sites as well as in a distinct perinuclear region"}, {"measurement": "anti-adenoviral activity (plaque size)", "setting": "HAd-C5-GFP; 5 µM, 0.1 pp/cell HAd-C5-GFP, plaque size six days after infection, compared to DMSO", "value": "effective anti-adenoviral activity"}, {"measurement": "Kd", "setting": "WW3-NEDD 4.1 peptide; MST, 100 nM FAM-labelled peptide, 1x PBS pH 7.4, 5 % DMSO, 0.1 % Pluronic F-127, 25°C, read-out: WW3-NEDD 4.1 peptide KD", "value": "0.058 ± 0.022", "unit": "µM"}, {"measurement": "higher affinity to the WW3 peptide domain target compared to the Imidazole control", "setting": "WW3-NEDD 4.1 peptide; ratio of MST KD values, WW3-NEDD4.1 and WW3-NEDD4.2", "value": "100-1000 fold"}, {"measurement": "interaction with the NEDD4 peptide (NMR chemical shift change)", "setting": "WW3-domain of NEDD4", "value": "interacts with the NEDD4 peptide"}, {"measurement": "NEDD4.1 localization", "setting": "GFP-NEDD4.1", "value": "became largely immobile and relocated to a perinuclear region"}, {"measurement": "ubiquitylation of cellular proteins", "setting": "U2OS cells; 2µM", "value": "protein ubiquitylation is reduced or increased for several cellular proteins"}, {"measurement": "ubiquitylation of cellular proteins", "setting": "U2OS cells; 10µM", "value": "preferentially increases ubiquitylation of several cellular proteins"}, {"measurement": "Kd", "setting": "WW3-NEDD 4.2 peptide", "value": "0.12 ± 0.039", "unit": "µM"}, {"measurement": "ubiquitylation of protein VI in cells", "setting": "protein VI", "value": "gradually impaired ubiquitylation of protein VI"}]}, {"smiles": "c1c[nH]cn1", "note": "[Imidazole (control), Imidazole, reference compound]", "values": [{"measurement": "Kd", "setting": "WW3-NEDD 4.1 peptide", "value": "88.9 ± 28.4", "unit": "µM"}, {"measurement": "Kd", "setting": "WW3-NEDD 4.2 peptide", "value": "90.4 ± 38.6", "unit": "µM"}]}]}
